Measurements as given in US11090305B2, “Methods and compositions to reduce oxidative stress” (University of Massachusetts, priority 2009, dated 2021).

What was measured:
db/db MSC = assay: Basal protein expression in db/db MSC (western blot); format: cell-based, mouse
HSCs = assay: Competitive HSC transplantation, bone marrow repopulation; format: in vivo, mouse; conditions: ApoE^−/− donor mice treated before HSC harvest (NAC 4 weeks; SB203580, PD98059 2 weeks)
Description: HSC were purified from freshly harvested bone marrow mononuclear cells as c-Kit^+Sca-1^+CD90.1^lowLin^− by FACS sorting. Recipient mice were C57BL/6 (WT) on standard chow. Recipients underwent lethal irradiation (1100 Rads delivered in 2 doses 3 hr apart). Immediately after the 2nd irradiation, recipients were anesthetized (2% isoflurane) and 10^6 HSC/0.1 ml sterile PBS were transplanted via retro-orbital injection. Mice were followed for 12 weeks before study or administration of AOM.
The functional consequence of this loss of quiescence by competitive transplantation was investigated next, insofar as the presence of quiescent HSC are critical for successful bone marrow reconstitution. HSCs from CD45.2 ApoE^−/− or HCD mice were mixed 1:1 with CD45.1 WT HSCs and then transplanted into lethally irradiated CD45.1 WT recipients.
Activation of p38 MAPK reduces HSC quiescence in Atm^−/− mice. To evaluate this phenomena in hypercholesterolemic mice, ApoE^−/− and WT mice were treated with the selective p38 MAPK inhibitor SB203580 or the MEK 1 inhibitor PD98059 for 2 weeks prior to harvest of HSCs for transplant. CD45.2 ApoE^−/− or WT HSCs with mixed 1:1 with CD45.1 WT HSCs and transplanted into lethally irradiated CD45.1 recipient mice.

[1] = tested on: hypercholesterolemic mice (ApoE^−/−, HCD); assay: Azoxymethane (AOM)-induced colorectal neoplasia; design: species or system mouse; conditions: in vivo pretreatment
Excerpt: All mice were purchased from Jackson Laboratories (Bar Harbor, Me.) and were maintained in the mouse barrier facility. Care of mice was in accordance with NIH guidelines and the Institutional Animal Care and Use Committee of the University of Massachusetts Medical School approved all protocols. Mice were kept on a 12 hr day/night schedule and were allowed free access to chow and water. ApoE^−/− and WT mice were fed standard mouse chow (5.4 g fat/100 g diet, 0% cholesterol). HCD mice were fed a diet with 10 g fat/100 g diet, […] (Research Diets, New Brunswick, N.J.). […] Azoxymethane (AOM) was given by intraperitoneal injection (10 mg/Kg weekly for 3 weeks); 1% dextran sodium sulfate was added to the drinking water for the Pt week after AOM treatment. The colon and rectum was removed en bloc from each mouse and the number of polyps was identified using a dissecting microscope. Each polyp was frozen in OCT at −80° C. and cryosections (10 μM) cut. […] (A) Total serum cholesterol measured under fasting conditions (16 hr) was greater in ApoE^−/− and HCD groups than in the WT group. […] Ten weeks later, the incidence and number of polyps were determined in the colon and rectum, and a pathologist blinded to study condition assigned each polyp a histological grade (hyperplasia, grade 1, 2, or 3 adenoma, or carcinoma). […]

ApoE^−/−-derived HSCs = assay: HSC transplantation into lethally irradiated WT recipients; format: in vivo, mouse; conditions: 12 weeks after transplant; ApoE^−/− donors pretreated 4 weeks
Description: It was next determined the oxidant status of HSCs transplanted into WT mice. To this end, lethally irradiated WT mice were transplanted with HSCs from WT or ApoE^−/− mice, or with HSCs harvested from ApoE^−/− mice pretreated with NAC for 4 weeks. […] Numbers in each representative FACS analysis are the m±sd for that group; n=5; *p<0.05 vs. WT→WT group; †p<0.05 for ApoE+NAC→WT vs. Apoe→WT.

Notch1 = Notch1 expression in HSCs, early T progenitor cells and thymocytes (Example 6); format: in vivo, mouse; conditions: hypercholesterolemic mice, 4 weeks
Description: Cells were stained with monoclonal antibodies conjugated to various fluoroprobes. These antibodies included: Notch1, cKit (2B8), Sca-1 (E13-161.7), CD4 (L3T4), CD8 (53-6.72), CD90.1, CD25, CD44, TCRβ, NK1.1, γδTCR, CD45.1, CD45.2. The lineage cocktail consisted of CD4, CD8, B220 (RA3-6B2), TER-119, Mac-1 (MI/70), and Gr-1 (RB6-8C5). All antibodies were purchased from BD Bioscience (San Diego, Calif.). FACS analysis was carried out on a FACS Diva.
The Notch signaling pathways are expressed extensively in the hematopoietic system. Notch signaling dominates the regulation of proliferation, self-renewal, and lineage commitment of HSCs in the bone marrow as well as their downstream differentiation and maturation in the thymus (23-28). Moreover, Notch1 appears to participate in the differentiation of the unique T cell subsets, NKT cells and γδT cells (29-32). In this context, the mechanistic basis between HSC oxidant stress and aberrant lineage specification toward NKT and γδT cells in hypercholesterolemic mice was evaluated by determining Notch expression in HSC, bone marrow T cell progenitors, and immature thymocytes. […] Notch1 expression was evaluated in HSCs, early T progenitor cells, and thymocytes differs between ApoE^−/− and WT mice. […] Notch1 expression also was evaluated in HSCs, early T progenitor cells, and thymocytes differs between HCD and WT mice. […]

CC(=O)N[C@@H](CS)C(=O)O [NAC, N-acetylcysteine]
eNOS expression (db/db MSC): no change in eNOS expression | phospho-eNOS expression (db/db MSC): increased phospho-eNOS expression | PPARγ expression (db/db MSC; basal): reduced basal PPARγ expression | percentage of CD45.2^+ bone marrow mononuclear cells 12 weeks after competitive transplantation (HSCs): significantly increased the percentage of CD45.2^+ mononuclear cells in recipient bone marrow | histological severity of AOM-induced colorectal polyps ([1]; ApoE^−/− and HCD mice): these effects were reversed by in vivo pretreatment with NAC | susceptibility to AOM-induced neoplasia ([1]; hypercholesterolemic mice): reduced susceptibility to AOM-induced neoplasia | percentage of γδT cells in peripheral blood and NKT cells in thymus and peripheral blood of WT recipients (ApoE^−/−-derived HSCs): significantly less in WT recipients transplanted with ApoE^−/−-derived HSCs than WT mice transplanted with WT HSCs, or HSCs harvested from NAC-pretreated ApoE^−/− donor mice | differences in Notch1 expression in HSCs, T progenitor cells and thymocytes (Notch1): significantly reversed by in vivo treatment with NAC for 4 weeks
